Test results as given in ChEMBL document CHEMBL3885861, “Open TG-GATES”.

Species: Rattus norvegicus
Experiment: Open TG-GATES - Regimen: Daily Repeat
Format: toxicity, organism-based, Sprague-Dawley
Design: regimen Daily Repeat, gender Male, age 6 weeks
Details: in vivo, po, route gavage; for APTT / Bas / Eos / Fbg / Hb / Ht / Lym / MCH / MCHC / MCV / Mono / Neu / PT / Plat / RBC / Ret / WBC: tissue Blood; for KIDNEY_L / KIDNEY_R / KIDNEY_TOTAL: tissue Kidney; for LIVER: tissue Liver; for A/G / ALP / ALT / AST / BUN / CRE / Ca / Cl / DBIL / GLC / IP / K / LDH / Na / PL / RALB / TBIL / TC / TG / TP / gamma-GTP: tissue Plasma
[1] = 50 mg/kg, 72 h, dose level Middle, time 3 day
[2] = 50 mg/kg, […], dose level Middle, time 7 day
[3] = 50 mg/kg, […], dose level Middle, time 14 day
[4] = 50 mg/kg, […], dose level Middle, time 28 day
[5] = 150 mg/kg, 72 h, dose level High, time 3 day
[6] = 150 mg/kg, […], dose level High, time 7 day
[7] = 150 mg/kg, […], dose level High, time 14 day
[8] = 150 mg/kg, […], dose level High, time 28 day

CC(C)C(=O)Nc1ccc([N+](=O)[O-])c(C(F)(F)F)c1 [FLUTAMIDE]
TERMINAL_BW [1]: 215.7 g
APTT [1]: 18.3 s
Bas [1]: 0%
Eos [1]: 1.2%
Fbg [1]: 217 mg/dL
Hb [1]: 14.3 g/dL
Ht [1]: 43.4%
Lym [1]: 78%
MCH [1]: 20.9 pg
MCHC [1]: 32.9%
MCV [1]: 63.5 fL
Mono [1]: 2.6%
Neu [1]: 17.4%
PT [1]: 12.3 s
Plat [1]: 115.2 x10_4/uL
RBC [1]: 685 x10_4/ul
Ret [1]: 4.1%
WBC [1]: 77.6 x10_2/uL
KIDNEY_L [1]: 0.9 g
KIDNEY_R [1]: 1 g
KIDNEY_TOTAL [1]: 1.9 g
LIVER [1]: 11.1 g
A/G [1]: 1.7
ALP [1]: 1001 IU/L
ALT [1]: 38 IU/L
AST [1]: 66.2 IU/L
BUN [1]: 14.6 mg/dL
CRE [1]: 0.4 mg/dL
Ca [1]: 10.7 mg/dL
Cl [1]: 105 meq/L
DBIL [1]: 0.098 mg/dL
GLC [1]: 210.8 mg/dL
IP [1]: 6.9 mg/dL
K [1]: 3.6 meq/L
LDH [1]: 175.8 IU/L
Na [1]: 142 meq/L
PL [1]: 162.4 mg/dL
RALB [1]: 3.6 g/dL
TBIL [1]: 0.2 mg/dL
TC [1]: 97.8 mg/dL
TG [1]: 66.6 mg/dL
TP [1]: 5.7 g/dL
gamma-GTP [1]: 1 IU/L
TERMINAL_BW [2]: 244.8 g
TERMINAL_BW [3]: 289.8 g
TERMINAL_BW [4]: 352.3 g
APTT [2]: 16.9 s
Bas [2]: 0%
Eos [2]: 1%
Fbg [2]: 221.4 mg/dL
Hb [2]: 13.6 g/dL
Ht [2]: 40.5%
Lym [2]: 82.2%
MCH [2]: 20.6 pg
MCHC [2]: 33.7%
MCV [2]: 61.2 fL
Mono [2]: 2.6%
Neu [2]: 13.8%
PT [2]: 12.7 s
Plat [2]: 126 x10_4/uL
RBC [2]: 661.8 x10_4/ul
Ret [2]: 4.8%
WBC [2]: 115.5 x10_2/uL
APTT [3]: 20.1 s
Bas [3]: 0%
Eos [3]: 1%
Fbg [3]: 216.8 mg/dL
Hb [3]: 14.2 g/dL
Ht [3]: 41.8%
Lym [3]: 82%
MCH [3]: 20.7 pg
MCHC [3]: 34.1%
MCV [3]: 60.9 fL
Mono [3]: 1.8%
Neu [3]: 14.4%
PT [3]: 12.6 s
Plat [3]: 116.7 x10_4/uL
RBC [3]: 687.8 x10_4/ul
Ret [3]: 4%
WBC [3]: 138.1 x10_2/uL
APTT [4]: 19.2 s
Bas [4]: 0%
Eos [4]: 1%
Fbg [4]: 225 mg/dL
Hb [4]: 15 g/dL
Ht [4]: 42.3%
Lym [4]: 83.8%
MCH [4]: 20.2 pg
MCHC [4]: 35.6%
MCV [4]: 56.9 fL
Mono [4]: 2%
Neu [4]: 12.2%
PT [4]: 12.5 s
Plat [4]: 107.9 x10_4/uL
RBC [4]: 743.2 x10_4/ul
Ret [4]: 2.1%
WBC [4]: 114.3 x10_2/uL
KIDNEY_L [2]: 1 g
KIDNEY_R [2]: 1 g
KIDNEY_TOTAL [2]: 2 g
KIDNEY_L [3]: 1.2 g
KIDNEY_R [3]: 1.1 g
KIDNEY_TOTAL [3]: 2.3 g
KIDNEY_L [4]: 1.3 g
KIDNEY_R [4]: 1.3 g
KIDNEY_TOTAL [4]: 2.5 g
LIVER [2]: 12.8 g
LIVER [3]: 14.8 g
LIVER [4]: 16.8 g
A/G [2]: 1.7
ALP [2]: 753 IU/L
ALT [2]: 36.4 IU/L
AST [2]: 54.4 IU/L
BUN [2]: 15.6 mg/dL
CRE [2]: 0.4 mg/dL
Ca [2]: 10.9 mg/dL
Cl [2]: 103.8 meq/L
DBIL [2]: 0.09 mg/dL
GLC [2]: 215.2 mg/dL
IP [2]: 6.8 mg/dL
K [2]: 3.7 meq/L
LDH [2]: 169.2 IU/L
Na [2]: 140.6 meq/L
PL [2]: 156.2 mg/dL
RALB [2]: 3.7 g/dL
TBIL [2]: 0.1 mg/dL
TC [2]: 88.4 mg/dL
TG [2]: 67 mg/dL
TP [2]: 6 g/dL
gamma-GTP [2]: 0.2 IU/L
A/G [3]: 1.5
ALP [3]: 685.8 IU/L
ALT [3]: 33.2 IU/L
AST [3]: 59.2 IU/L
BUN [3]: 14.4 mg/dL
CRE [3]: 0.5 mg/dL
Ca [3]: 10.6 mg/dL
Cl [3]: 103.8 meq/L
DBIL [3]: 0.086 mg/dL
GLC [3]: 192 mg/dL
IP [3]: 6.2 mg/dL
K [3]: 3.8 meq/L
LDH [3]: 148 IU/L
Na [3]: 141.8 meq/L
PL [3]: 132 mg/dL
RALB [3]: 3.5 g/dL
TBIL [3]: 0.1 mg/dL
TC [3]: 70.6 mg/dL
TG [3]: 58.6 mg/dL
TP [3]: 5.9 g/dL
gamma-GTP [3]: 1 IU/L
A/G [4]: 1.5
ALP [4]: 449.8 IU/L
ALT [4]: 30.6 IU/L
AST [4]: 48.6 IU/L
BUN [4]: 17.4 mg/dL
CRE [4]: 0.5 mg/dL
Ca [4]: 10.5 mg/dL
Cl [4]: 103.8 meq/L
DBIL [4]: 0.078 mg/dL
GLC [4]: 227.2 mg/dL
IP [4]: 6.9 mg/dL
K [4]: 3.5 meq/L
LDH [4]: 124.2 IU/L
Na [4]: 141.8 meq/L
PL [4]: 167.4 mg/dL
RALB [4]: 3.8 g/dL
TBIL [4]: 0.1 mg/dL
TC [4]: 93.2 mg/dL
TG [4]: 54.2 mg/dL
TP [4]: 6.3 g/dL
gamma-GTP [4]: 1.6 IU/L
TERMINAL_BW [5]: 205.8 g
APTT [5]: 17.2 s
Bas [5]: 0%
Eos [5]: 0.8%
Fbg [5]: 219 mg/dL
Hb [5]: 14.3 g/dL
Ht [5]: 43.1%
Lym [5]: 87.4%
MCH [5]: 21.2 pg
MCHC [5]: 33.3%
MCV [5]: 63.6 fL
Mono [5]: 2.4%
Neu [5]: 8.6%
PT [5]: 12.6 s
Plat [5]: 125 x10_4/uL
RBC [5]: 677.2 x10_4/ul
Ret [5]: 3.5%
WBC [5]: 86 x10_2/uL
KIDNEY_L [5]: 0.9 g
KIDNEY_R [5]: 0.9 g
KIDNEY_TOTAL [5]: 1.8 g
LIVER [5]: 12.3 g
A/G [5]: 1.7
ALP [5]: 1049 IU/L
ALT [5]: 35.4 IU/L
AST [5]: 54.2 IU/L
BUN [5]: 13.2 mg/dL
CRE [5]: 0.5 mg/dL
Ca [5]: 10.5 mg/dL
Cl [5]: 103.4 meq/L
DBIL [5]: 0.1 mg/dL
GLC [5]: 203.2 mg/dL
IP [5]: 7.7 mg/dL
K [5]: 3.4 meq/L
LDH [5]: 196.2 IU/L
Na [5]: 141 meq/L
PL [5]: 185.2 mg/dL
RALB [5]: 3.6 g/dL
TBIL [5]: 0.2 mg/dL
TC [5]: 113.2 mg/dL
TG [5]: 77.8 mg/dL
TP [5]: 5.7 g/dL
gamma-GTP [5]: 1.4 IU/L
TERMINAL_BW [6]: 233.5 g
TERMINAL_BW [7]: 269.7 g
TERMINAL_BW [8]: 325.6 g
APTT [6]: 18.2 s
Bas [6]: 0%
Eos [6]: 1%
Fbg [6]: 224.6 mg/dL
Hb [6]: 13.5 g/dL
Ht [6]: 40.3%
Lym [6]: 81%
MCH [6]: 20.7 pg
MCHC [6]: 33.4%
MCV [6]: 62 fL
Mono [6]: 2.8%
Neu [6]: 14.6%
PT [6]: 12.6 s
Plat [6]: 123.7 x10_4/uL
RBC [6]: 651 x10_4/ul
Ret [6]: 4.3%
WBC [6]: 111.1 x10_2/uL
APTT [7]: 18.9 s
Bas [7]: 0%
Eos [7]: 1%
Fbg [7]: 228.2 mg/dL
Hb [7]: 13.9 g/dL
Ht [7]: 41.5%
Lym [7]: 79.4%
MCH [7]: 19.9 pg
MCHC [7]: 33.6%
MCV [7]: 59.3 fL
Mono [7]: 3.2%
Neu [7]: 15.2%
PT [7]: 12.9 s
Plat [7]: 115.7 x10_4/uL
RBC [7]: 699.6 x10_4/ul
Ret [7]: 4.5%
WBC [7]: 115.1 x10_2/uL
APTT [8]: 18.2 s
Bas [8]: 0%
Eos [8]: 1.2%
Fbg [8]: 237 mg/dL
Hb [8]: 13.7 g/dL
Ht [8]: 39.9%
Lym [8]: 81.6%
MCH [8]: 19.5 pg
MCHC [8]: 34.3%
MCV [8]: 56.9 fL
Mono [8]: 2.6%
Neu [8]: 13.6%
PT [8]: 12.8 s
Plat [8]: 98 x10_4/uL
RBC [8]: 700.6 x10_4/ul
Ret [8]: 3.7%
WBC [8]: 112 x10_2/uL
KIDNEY_L [6]: 1 g
KIDNEY_R [6]: 1 g
KIDNEY_TOTAL [6]: 2 g
KIDNEY_L [7]: 1.1 g
KIDNEY_R [7]: 1.2 g
KIDNEY_TOTAL [7]: 2.2 g
KIDNEY_L [8]: 1.1 g
KIDNEY_R [8]: 1.2 g
KIDNEY_TOTAL [8]: 2.3 g
LIVER [6]: 15.7 g
LIVER [7]: 16.8 g
LIVER [8]: 20 g
A/G [6]: 1.5
ALP [6]: 797.6 IU/L
ALT [6]: 32.8 IU/L
AST [6]: 46 IU/L
BUN [6]: 16 mg/dL
CRE [6]: 0.4 mg/dL
Ca [6]: 10.7 mg/dL
Cl [6]: 102.8 meq/L
DBIL [6]: 0.086 mg/dL
GLC [6]: 199.8 mg/dL
IP [6]: 7.1 mg/dL
K [6]: 3.5 meq/L
LDH [6]: 177.8 IU/L
Na [6]: 140.6 meq/L
PL [6]: 186.8 mg/dL
RALB [6]: 3.7 g/dL
TBIL [6]: 0.2 mg/dL
TC [6]: 110.6 mg/dL
TG [6]: 42.6 mg/dL
TP [6]: 6.2 g/dL
gamma-GTP [6]: 2 IU/L
A/G [7]: 1.7
ALP [7]: 726.8 IU/L
ALT [7]: 31 IU/L
AST [7]: 47.4 IU/L
BUN [7]: 15 mg/dL
CRE [7]: 0.5 mg/dL
Ca [7]: 10.5 mg/dL
Cl [7]: 103.4 meq/L
DBIL [7]: 0.096 mg/dL
GLC [7]: 181.2 mg/dL
IP [7]: 6.3 mg/dL
K [7]: 3.8 meq/L
LDH [7]: 173.8 IU/L
Na [7]: 140.4 meq/L
PL [7]: 168.8 mg/dL
RALB [7]: 3.8 g/dL
TBIL [7]: 0.2 mg/dL
TC [7]: 104.4 mg/dL
TG [7]: 32.2 mg/dL
TP [7]: 6 g/dL
gamma-GTP [7]: 2.8 IU/L
A/G [8]: 1.8
ALP [8]: 642.2 IU/L
ALT [8]: 29.2 IU/L
AST [8]: 45.2 IU/L
BUN [8]: 16.4 mg/dL
CRE [8]: 0.5 mg/dL
Ca [8]: 10.7 mg/dL
Cl [8]: 104 meq/L
DBIL [8]: 0.1 mg/dL
GLC [8]: 204.4 mg/dL
IP [8]: 7.6 mg/dL
K [8]: 3.7 meq/L
LDH [8]: 110.8 IU/L
Na [8]: 141.8 meq/L
PL [8]: 167.4 mg/dL
RALB [8]: 4.3 g/dL
TBIL [8]: 0.2 mg/dL
TC [8]: 97.4 mg/dL
TG [8]: 26.6 mg/dL
TP [8]: 6.8 g/dL
gamma-GTP [8]: 1.8 IU/L
